# Reference: PMC12120022, “Discovery and chemical optimisation of a potent, Bi-cyclic antimicrobial inhibitor of Escherichia coli PBP3” (Communications Biology, 2025)
# Where a SMILES comes first, the peptide text is derived from it.
# Target: T1, EcPBP3 (Escherichia coli, UniProt P0AD68)
# T1 construct: For assays, selections and SPR a construct with residues 60–588 which has the N-terminal domain, but not the transmembrane helix, was used; made in house
# Assay: Fluorescence polarisation competition assay with fluorescent Bicycle tracer (tracer 1 / BCY12820)
# Assay type: binding
# Details: protein 9.4 nM sets sensitivity limit, top concentration 5 µM, read-out: Ki (nM) by fluorescence polarisation with tracer 1 (BCY12820 as tracer), Geometric mean (Lower 95% CI; Upper 95% CI, n=number of values)
# Method: Competition fluorescence polarisation assays were run by observing the fluorescence polarisation of a fluorescent “tracer” Bicycle molecule which competes against an unlabelled peptide for binding to the EcPBP3 target. 10 µL of protein (9.4 nM) was mixed with either 5 µL of peptide or 5 µL of buffer and then the assay was initiated by the addition of 10 µL of tracer (1 nM) (final volume 25 µL), in a black 384 low bind, low volume plate (Corning). The buffer was 10 mM HEPES (Sigma), 2% (v/v) glycerol (Sigma), 300 mM NaCl (Sigma), adjusted to pH 8. The plate was incubated for 1 h at 25 °C and then read in a PHERAstar FS (BMG) using with an “FP 485 520 520” optic module (excitation 485 nm, emission 520 nm). The gain was determined immediately prior to the read on a tracer-only well.
# Dotmatics (Dotmatics) workflows performing the above calculations were used to process the data. Values quoted are the geometric means of at least 2 repeats.
# T1 sequence (P0AD68 60-588): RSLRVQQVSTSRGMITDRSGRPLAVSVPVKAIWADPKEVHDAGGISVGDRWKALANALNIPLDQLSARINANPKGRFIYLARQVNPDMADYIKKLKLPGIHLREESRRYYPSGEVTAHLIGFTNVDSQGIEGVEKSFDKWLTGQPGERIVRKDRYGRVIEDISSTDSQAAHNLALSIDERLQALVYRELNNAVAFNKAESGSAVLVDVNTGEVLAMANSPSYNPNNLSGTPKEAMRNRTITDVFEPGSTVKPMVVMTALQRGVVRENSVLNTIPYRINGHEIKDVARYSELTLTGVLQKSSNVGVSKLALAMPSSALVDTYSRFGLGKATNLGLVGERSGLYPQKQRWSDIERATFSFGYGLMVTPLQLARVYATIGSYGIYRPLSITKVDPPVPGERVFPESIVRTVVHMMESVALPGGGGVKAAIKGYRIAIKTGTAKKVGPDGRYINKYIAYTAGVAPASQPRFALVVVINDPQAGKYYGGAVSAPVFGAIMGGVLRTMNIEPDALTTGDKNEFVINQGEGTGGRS
smiles,measurement,value
"CC(C)[C@@H]1NC(=O)[C@H](Cc2c[nH]c3ccccc23)NC(=O)[C@@H]2CCCN2C(=O)[C@@H]2CSCCC(=O)N3CN(CN(C3)C(=O)CCSC[C@H](NC(=O)[C@H](C)N)C(=O)N[C@@H](CO)C(=O)N[C@@H](Cc3ccccc3)C(=O)N[C@@H](Cc3ccc(O)cc3)C(=O)N[C@@H](CCCCNC(=N)N)C(=O)N2)C(=O)CCSC[C@@H](C(=O)N[C@@H](C)C(N)=O)NC(=O)CNC(=O)[C@H](CCC(=O)O)NC1=O [Peptide 34] (HELM PEPTIDE1{A.C.S.F.Y.[N=C(N)NCCCC[C@H](N[*:1])C(=O)[*:2]].C.P.W.V.E.G.C.A.[am]}|CHEM1{[O=C(CC[*:1])N1CN(C(=O)CC[*:2])CN(C(=O)CC[*:3])C1]}$PEPTIDE1,CHEM1,2:R3-1:R1|PEPTIDE1,CHEM1,7:R3-1:R2|PEPTIDE1,CHEM1,13:R3-1:R3$$$V2.0)",Ki,27.1 nM
"CC(C)C[C@@H]1NC(=O)[C@H](C(C)C)NC(=O)[C@H](Cc2c[nH]c3ccccc23)NC(=O)[C@@H]2CCCN2C(=O)[C@@H]2CSCCC(=O)N3CN(CN(C3)C(=O)CCSC[C@H](NC(=O)[C@H](C)N)C(=O)N[C@@H](CO)C(=O)N[C@@H](Cc3ccccc3)C(=O)N3CCC[C@H]3C(=O)N[C@@H](CCCCNC(=N)N)C(=O)N2)C(=O)CCSC[C@@H](C(=O)N[C@@H](C)C(N)=O)NC(=O)CNC1=O [Peptide 48] (HELM PEPTIDE1{A.C.S.F.P.[N=C(N)NCCCC[C@H](N[*:1])C(=O)[*:2]].C.P.W.V.L.G.C.A.[am]}|CHEM1{[O=C(CC[*:1])N1CN(C(=O)CC[*:2])CN(C(=O)CC[*:3])C1]}$PEPTIDE1,CHEM1,2:R3-1:R1|PEPTIDE1,CHEM1,7:R3-1:R2|PEPTIDE1,CHEM1,13:R3-1:R3$$$V2.0)",Ki,49.7 nM
"C[C@H](N)C(=O)N[C@H]1CSCCC(=O)N2CN3CN(C2)C(=O)CCSC[C@H](NC(=O)[C@H](CCCCNC(=N)N)NC(=O)[C@@H]2CCCN2C(=O)[C@H](Cc2ccccc2)NC(=O)[C@H](CO)NC1=O)C(=O)N1CCC[C@H]1C(=O)N[C@@H](Cc1c[nH]c2ccccc12)C(=O)N[C@@H]([C@@H](C)O)C(=O)N[C@@H](CCC(=O)O)C(=O)NCC(=O)N[C@H](C(=O)N[C@@H](C)C(N)=O)CSCCC3=O [Peptide 46] (HELM PEPTIDE1{A.C.S.F.P.[N=C(N)NCCCC[C@H](N[*:1])C(=O)[*:2]].C.P.W.T.E.G.C.A.[am]}|CHEM1{[O=C(CC[*:1])N1CN(C(=O)CC[*:2])CN(C(=O)CC[*:3])C1]}$PEPTIDE1,CHEM1,2:R3-1:R1|PEPTIDE1,CHEM1,7:R3-1:R2|PEPTIDE1,CHEM1,13:R3-1:R3$$$V2.0)",Ki,15.5 nM
"CC(C)[C@@H]1NC(=O)[C@H](Cc2c[nH]cn2)NC(=O)[C@@H]2CCCN2C(=O)[C@@H]2CSCCC(=O)N3CN(CN(C3)C(=O)CCSC[C@H](NC(=O)[C@H](C)N)C(=O)N[C@@H](CO)C(=O)N[C@@H](Cc3ccccc3)C(=O)N3CCC[C@H]3C(=O)N[C@@H](CCCCNC(=N)N)C(=O)N2)C(=O)CCSC[C@@H](C(=O)N[C@@H](C)C(N)=O)NC(=O)CNC(=O)[C@H](CCC(=O)O)NC1=O [Peptide 44] (HELM PEPTIDE1{A.C.S.F.P.[N=C(N)NCCCC[C@H](N[*:1])C(=O)[*:2]].C.P.H.V.E.G.C.A.[am]}|CHEM1{[O=C(CC[*:1])N1CN(C(=O)CC[*:2])CN(C(=O)CC[*:3])C1]}$PEPTIDE1,CHEM1,2:R3-1:R1|PEPTIDE1,CHEM1,7:R3-1:R2|PEPTIDE1,CHEM1,13:R3-1:R3$$$V2.0)",Ki,> 5000 nM
"CC(C)[C@@H]1NC(=O)[C@H](Cc2c[nH]c3ccccc23)NC(=O)[C@@H]2CCCN2C(=O)[C@@H]2CSCCC(=O)N3CN(CN(C3)C(=O)CCSC[C@H](NC(=O)[C@H](C)N)C(=O)N[C@@H](CO)C(=O)N[C@@H](Cc3ccccc3)C(=O)N[C@@H](Cc3c[nH]cn3)C(=O)N[C@@H](CCCCNC(=N)N)C(=O)N2)C(=O)CCSC[C@@H](C(=O)N[C@@H](C)C(N)=O)NC(=O)CNC(=O)[C@H](CCC(=O)O)NC1=O [Peptide 37] (HELM PEPTIDE1{A.C.S.F.H.[N=C(N)NCCCC[C@H](N[*:1])C(=O)[*:2]].C.P.W.V.E.G.C.A.[am]}|CHEM1{[O=C(CC[*:1])N1CN(C(=O)CC[*:2])CN(C(=O)CC[*:3])C1]}$PEPTIDE1,CHEM1,2:R3-1:R1|PEPTIDE1,CHEM1,7:R3-1:R2|PEPTIDE1,CHEM1,13:R3-1:R3$$$V2.0)",Ki,31.5 nM
"CC(C)[C@@H]1NC(=O)[C@H](Cc2c[nH]c3ccccc23)NC(=O)[C@@H]2CCCN2C(=O)[C@@H]2CSCCC(=O)N3CN(CN(C3)C(=O)CCSC[C@H](NC(=O)[C@H](C)N)C(=O)N[C@@H](CO)C(=O)N[C@@H](Cc3c[nH]cn3)C(=O)N3CCC[C@H]3C(=O)N[C@@H](CCCCNC(=N)N)C(=O)N2)C(=O)CCSC[C@@H](C(=O)N[C@@H](C)C(N)=O)NC(=O)CNC(=O)[C@H](CCC(=O)O)NC1=O [Peptide 32] (HELM PEPTIDE1{A.C.S.H.P.[N=C(N)NCCCC[C@H](N[*:1])C(=O)[*:2]].C.P.W.V.E.G.C.A.[am]}|CHEM1{[O=C(CC[*:1])N1CN(C(=O)CC[*:2])CN(C(=O)CC[*:3])C1]}$PEPTIDE1,CHEM1,2:R3-1:R1|PEPTIDE1,CHEM1,7:R3-1:R2|PEPTIDE1,CHEM1,13:R3-1:R3$$$V2.0)",Ki,115 nM
"CC(C)[C@@H]1NC(=O)[C@H](Cc2c[nH]c3ccccc23)NC(=O)[C@@H]2CCCN2C(=O)[C@@H]2CSCCC(=O)N3CN(CN(C3)C(=O)CCSC[C@H](NC(=O)[C@H](C)N)C(=O)N[C@@H](CCC(=O)O)C(=O)N[C@@H](Cc3ccccc3)C(=O)N3CCC[C@H]3C(=O)N[C@@H](CCCCNC(=N)N)C(=O)N2)C(=O)CCSC[C@@H](C(=O)N[C@@H](C)C(N)=O)NC(=O)CNC(=O)[C@H](CCC(=O)O)NC1=O [Peptide 31] (HELM PEPTIDE1{A.C.E.F.P.[N=C(N)NCCCC[C@H](N[*:1])C(=O)[*:2]].C.P.W.V.E.G.C.A.[am]}|CHEM1{[O=C(CC[*:1])N1CN(C(=O)CC[*:2])CN(C(=O)CC[*:3])C1]}$PEPTIDE1,CHEM1,2:R3-1:R1|PEPTIDE1,CHEM1,7:R3-1:R2|PEPTIDE1,CHEM1,13:R3-1:R3$$$V2.0)",Ki,< 9 nM
"CC(C)[C@@H]1NC(=O)[C@H](Cc2c[nH]c3ccccc23)NC(=O)[C@@H]2CCCN2C(=O)[C@@H]2CSCCC(=O)N3CN(CN(C3)C(=O)CCSC[C@H](NC(=O)[C@H](C)N)C(=O)NCC(=O)N[C@@H](Cc3ccccc3)C(=O)N3CCC[C@H]3C(=O)N[C@@H](CCCCNC(=N)N)C(=O)N2)C(=O)CCSC[C@@H](C(=O)N[C@@H](C)C(N)=O)NC(=O)CNC(=O)[C@H](CCC(=O)O)NC1=O [Peptide 26] (HELM PEPTIDE1{A.C.G.F.P.[N=C(N)NCCCC[C@H](N[*:1])C(=O)[*:2]].C.P.W.V.E.G.C.A.[am]}|CHEM1{[O=C(CC[*:1])N1CN(C(=O)CC[*:2])CN(C(=O)CC[*:3])C1]}$PEPTIDE1,CHEM1,2:R3-1:R1|PEPTIDE1,CHEM1,7:R3-1:R2|PEPTIDE1,CHEM1,13:R3-1:R3$$$V2.0)",Ki,17.1 nM
"CC(C)[C@@H]1NC(=O)[C@H](Cc2c[nH]c3ccccc23)NC(=O)[C@@H]2CCCN2C(=O)[C@@H]2CSCCC(=O)N3CN(CN(C3)C(=O)CCSC[C@H](NC(=O)[C@H](C)N)C(=O)N[C@@H](CC(N)=O)C(=O)N[C@@H](Cc3ccccc3)C(=O)N3CCC[C@H]3C(=O)N[C@@H](CCCCNC(=N)N)C(=O)N2)C(=O)CCSC[C@@H](C(=O)N[C@@H](C)C(N)=O)NC(=O)CNC(=O)[C@H](CCC(=O)O)NC1=O [Peptide 29] (HELM PEPTIDE1{A.C.N.F.P.[N=C(N)NCCCC[C@H](N[*:1])C(=O)[*:2]].C.P.W.V.E.G.C.A.[am]}|CHEM1{[O=C(CC[*:1])N1CN(C(=O)CC[*:2])CN(C(=O)CC[*:3])C1]}$PEPTIDE1,CHEM1,2:R3-1:R1|PEPTIDE1,CHEM1,7:R3-1:R2|PEPTIDE1,CHEM1,13:R3-1:R3$$$V2.0)",Ki,< 9 nM
